Assays:
[1] = tested on: SKNBE2 neuroblastoma cells; assay: Flow cytometric analysis of rhodamine-glibenclamide staining in live cells; type: cell-based, human
[2] = FRAP of NBD-cholesterol in synthetic membrane monolayers; conditions: PC SUV derived monolayers, 20% cholesterol, 2% NBD-cholesterol
From the text: CBD's ability to affect cholesterol orientation in both synthetic and cell derived ER membranes implies that CBD may contribute to increased lipid order. The ability of cholesterol oxidase assays to reveal alterations in lipid order has been previously reported in studies noting that cholesterol oxidase can preferentially target caveolar domains, which are ordered lipid domains. Another hallmark of lipid order is a decrease in lateral diffusion of lipids. As a result, the present inventors aimed to measure CBD's ability to perturb the lateral diffusion of fluorescently labelled cholesterol (NBD-cholesterol) in synthetic membranes. The present inventors deposited PC SUVs containing 20% moles of cholesterol and 2% moles NBD-cholesterol on glass-bottom multi-well imaging plates, followed by ultra-sonification to construct fluorescently labelled membrane monolayers. Using these monolayers and confocal microscopy, the inventor's performed fluorescence recovery after photobleaching (FRAP) experiments to measure the kinetics of recovery of fluorescent cholesterol. […] This effect of CBD on lateral diffusion could be rescued with simultaneous treatment with the lipid disordering agent DHA (FIGS. 6G, I). There are two proposed models for how DHA affects cholesterol in membranes. […]

[3] = tested on: SK-N-BE(2) and HaCaT keratinocyte cell lines; assay: FRET biosensor profiling of CBD response; type: cell-based, human; conditions: CBD dose and time survey
Experimental: To efficiently design the multi-omics experiments, the present inventors exposed the neuroblastoma cell line SK-N-BE(2) to escalating doses of CBD at 24, 48, and 72 hours and determined the EC50 of toxicity of CBD to be greatest at 72 hours and at an approximate concentration of 20 μM (FIG. 1 B). To maximize the efficient use of the inventor's multi-omic resources, a large dose and time survey of the CBD response was conducted in a panel of transgenic SK-N-BE(2) and HaCaT keratinocyte cell lines, each expressing a genetically encoded förster resonance energy transfer (FRET) biosensor gene capable of reporting the activity of a cellular effector molecule/activity including, but not limited to: AMP kinase activity, Erk kinase activity, cytosolic ATP, glucose, lactate, pyruvate & glutamine, Ca^2+ in the ER & Cytosol, mTor kinase activity & TACE protease activity. […] The biosensor activity profiles as a function of CBD dose and time (FIGS. 9A-C) were analyzed for the EC50 of each biosensor activity at each time (FIG. 10). The result of these efforts outlined that the most robust dose of CBD for use in multi-omic experiments is 20 μM and that the kinetic profile of the CBD response begins in hours and persists for days.
Stable transgenic biosensor expressing cell lines were made in HaCaT and SK-N-BE(2) cells. […]

SMILES: C=C(C)[C@@H]1CCC(C)=C[C@H]1c1c(O)cc(CCCCC)cc1O [CBD, cannabidiol]
- cellular response similar to cholesterol drugs Atorvastatin and Ezetimibe ([1]; SKNBE2 neuroblastoma cells): low cholesterol response
- rhodamine-glibenclamide fluorescence ([1]; live cells, flow cytometry): Enhanced fluorescence
- FRAP kinetics (lateral diffusion of fluorescent cholesterol) [2]: significantly reduced
- biosensor activities across panel [3]: causes modulation of all biochemical pathways that were probed

From patent US20210244686A1, “Novel Systems And Methods For The Therapeutic Use of Cannabinoids or Cannabinoid Analogs to Increase The Lipid Order of Cholesterol Containing Cell Membranes” (The Regents of the University of Colorado a body corporate, priority 2018, published 2021)
